In brackets after ≈: the same amount, converted by molar mass. Several values for one entry are separate records, joined by “and”; a condition that tells them apart may be missing. Equal entries are not always repeated.
What was measured:
[1] = target: T1, murine PDXP/PGP hybrid (Mus musculus, UniProt P60487+Q8CHP8); assay: PG dephosphorylation by PDXP/PGP hybrid protein; format: biochemical
T1 construct: consisting of the PGP cap domain (amino acids 114–233) fused to the PDXP core domain; His6 (N, cleaved yes); made in house; host or cells: Escherichia coli BL21 (DE3), pETM11
T1 sequence (P60487 1-100): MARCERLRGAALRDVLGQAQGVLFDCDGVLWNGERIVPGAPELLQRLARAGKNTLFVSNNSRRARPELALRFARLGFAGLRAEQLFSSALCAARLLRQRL
T1 sequence (Q8CHP8 114-233): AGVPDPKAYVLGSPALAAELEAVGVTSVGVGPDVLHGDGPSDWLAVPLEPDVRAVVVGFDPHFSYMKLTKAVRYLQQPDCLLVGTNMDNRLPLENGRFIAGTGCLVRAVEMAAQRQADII
T1 sequence (P60487 208-292): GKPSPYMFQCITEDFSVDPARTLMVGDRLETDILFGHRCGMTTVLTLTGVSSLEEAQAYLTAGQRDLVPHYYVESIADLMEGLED
Protocol: After centrifugation, cells were resuspended in TNM-2 (100 mM triethanolamine, 500 mM NaCl, 20 mM imidazole, 5 mM MgCl2; pH 7.4). Cleared supernatants were loaded on a HisTrap HP nickel sepharose column in TNM-3 (50 mM triethanolamine, 500 mM NaCl, 20 mM imidazole, 5 mM MgCl2; pH 7.4), and His6-tagged proteins were eluted using a linear gradient of up to 50% TNM-4 (50 mM triethanolamine; 250 mM NaCl; 500 mM imidazole; 5 mM MgCl2; pH 7.4). Peak fractions were pooled, the His6-tag was cleaved, and untagged PDXP or PDXP/PGP was isolated, concentrated and further purified by size exclusion chromatography in TNM-5 (50 mM triethanolamine; 250 mM NaCl; 5 mM MgCl2; pH 7.4). […] Data were analyzed with GraphPad Prism 7.04.

[2] = target: T2, PGP^WT (Mus musculus, UniProt Q8CHP8); assay: Differential scanning fluorimetry (Thermofluor); format: binding
T2 construct: His6 (N, cleaved yes); made in house; host or cells: Escherichia coli BL21 (DE3), pETM11, co-expressed with groES-groEL-tig
T2 sequence (Q8CHP8 1-321): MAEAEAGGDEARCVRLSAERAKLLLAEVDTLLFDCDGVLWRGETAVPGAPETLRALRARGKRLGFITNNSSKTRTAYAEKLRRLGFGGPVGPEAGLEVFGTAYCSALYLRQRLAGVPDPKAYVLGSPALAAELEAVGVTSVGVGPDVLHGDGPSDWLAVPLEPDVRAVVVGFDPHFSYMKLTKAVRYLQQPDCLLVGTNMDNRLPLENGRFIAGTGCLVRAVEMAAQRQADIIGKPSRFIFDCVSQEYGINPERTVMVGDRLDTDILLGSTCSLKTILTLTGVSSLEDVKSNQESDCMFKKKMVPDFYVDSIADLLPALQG

[3] = physchem; settings: organic solvent or mixture
[4] = target: T3, murine PGP (Mus musculus, UniProt Q8CHP8); assay: biochemical
T3 sequence (Q8CHP8 1-321): T2 sequence (Q8CHP8 1-321)

[5] = target: T4, murine PDXP (Mus musculus, UniProt P60487); assay: PDXP activity towards pyridoxal 5'-phosphate (PLP); settings: phosphatase PDXP; species M.m.; substrate PLP; n.s. = no significant inhibition detectable
T4 sequence (P60487 1-292): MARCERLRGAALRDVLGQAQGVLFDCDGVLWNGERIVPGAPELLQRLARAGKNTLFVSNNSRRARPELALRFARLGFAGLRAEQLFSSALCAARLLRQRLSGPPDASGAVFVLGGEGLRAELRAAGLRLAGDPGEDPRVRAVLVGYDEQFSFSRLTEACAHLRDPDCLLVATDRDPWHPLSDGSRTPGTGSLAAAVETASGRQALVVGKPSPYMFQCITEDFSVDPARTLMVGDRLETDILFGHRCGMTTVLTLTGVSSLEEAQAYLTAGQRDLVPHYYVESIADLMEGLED

[6] = target: T3, murine PGP; assay: IC50 determination, murine PGP, pNPP dephosphorylation
[7] = target: T5, PGP (Mus musculus, UniProt Q8CHP8); assay: Steady state kinetics of PG dephosphorylation in presence of CP1-3
T5 sequence (Q8CHP8 1-321): T2 sequence (Q8CHP8 1-321)

[8] = PG dephosphorylation, increasing CP concentrations

With `O=C(O)c1cc(Nc2ccccc2C(=O)O)nc(Nc2ccccc2C(=O)O)n1` [CP3] the remaining activity at 16 µM ([1]; activity, control = 100, CP log[M] -4.79588) was 1.8%, the remaining activity at 4 µM ([1]; activity, control = 100, CP log[M] -5.39794) was 13.3% and the remaining activity at 1 µM ([1]; activity, control = 100, CP log[M] -6) was 41.6%. It also gave a remaining activity at 0.5 µM ([1]; activity, control = 100, CP log[M] -6.30103) of 58.4%, a remaining activity at […] ([1]; activity, control = 100, CP log[M] -6.60206) of 73.5% and a remaining activity at 0.125 µM ([1]; activity, control = 100, CP log[M] -6.90309) of 84.1%. It also gave a remaining activity at 0.0625 µM ([1]; activity, control = 100, CP log[M] -7.20412) of 89.4%, a remaining activity at 0.015625 µM ([1]; activity, control = 100, CP log[M] -7.80618) of 103% and an IC50 ([1]; phosphatase PDXP/PGP, species M.m., substrate PG) of 0.97 ± 0.02 µM. For the same compound, the TM ([2]; Inhibitor 0.244141 µM) was 66.6 °C, the TM ([2]; Inhibitor 0.488281 µM) was 66.7 °C and the TM ([2]; Inhibitor 0.976562 µM) was 67.0 °C. The TM ([2]; Inhibitor 1.95312 µM) was 67.3 °C, the TM ([2]; Inhibitor 3.90625 µM) was 68.1 °C and the TM ([2]; Inhibitor 7.8125 µM) was 69.0 °C. The TM ([2]; Inhibitor 15.625 µM) was 70.4 °C, the TM ([2]; Inhibitor 31.25 µM) was 71.2 °C and the TM ([2]; Inhibitor 62.5 µM) was 72.1 °C. The TM ([2]; Inhibitor 125 µM) was 72.8 °C, the TM ([2]; Inhibitor 250 µM) was 73.4 °C and the solubility [3] was 50 mM (≈ 19.7 mg/mL). For the same compound, the IC50 [4] was 0.81 µM and 1 µM, the IC50 [5] was “n.s” and the IC50 [6] was 13.5 ± 2.51 µM. The remaining activity at 10 µM ([6]; read-out: M.m PGP on pNPP, activity, control = 100.00, CP log[M] -5) was 45.5%, the remaining activity at 5 µM ([6]; read-out: M.m PGP on pNPP, activity, control = 100.00, CP log[M] -5.30103) was 61.5% and the remaining activity at […] ([6]; read-out: M.m PGP on pNPP, activity, control = 100.00, CP log[M] -5.60206) was 74.3%. For the same compound, the remaining activity at 80 µM ([6]; read-out: M.m PGP on pNPP, activity, control = 100.00, Log CP3 [M] -4.09691) was 12.6%, the remaining activity at 40 µM ([6]; read-out: M.m PGP on pNPP, activity, control = 100.00, Log CP3 [M] -4.39794) was 20.3% and the remaining activity at 20 µM ([6]; read-out: M.m PGP on pNPP, activity, control = 100.00, Log CP3 [M] -4.69897) was 33.2%. The remaining activity at 1.25 µM ([6]; read-out: M.m PGP on pNPP, activity, control = 100.00, Log CP3 [M] -5.90309) was 85.2%, the remaining activity at 0.625 µM ([6]; read-out: M.m PGP on pNPP, activity, control = 100.00, Log CP3 [M] -6.20412) was 88.3% and the remaining activity at 0.3125 µM ([6]; read-out: M.m PGP on pNPP, activity, control = 100.00, Log CP3 [M] -6.50515) was 93.8%. For the same compound, the remaining activity at 0.15625 µM ([6]; read-out: M.m PGP on pNPP, activity, control = 100.00, Log CP3 [M] -6.80618) was 98.4%, the remaining activity at 0.078125 µM ([6]; read-out: M.m PGP on pNPP, activity, control = 100.00, Log CP3 [M] -7.10721) was 101% and the “mode of PGP inhibition” value [7] was “competitive inhibitors”. For the same compound, the PGP activity ([7]; 1 µM CP3, PG 50 µM) was 2.463 µmol Pi/min/mg and 2.403 µmol Pi/min/mg and 1.502 µmol Pi/min/mg, the PGP activity ([7]; 1 µM CP3, PG 100 µM) was 5.226 µmol Pi/min/mg and 4.205 µmol Pi/min/mg and the PGP activity ([7]; 1 µM CP3, PG 200 µM) was 10.3316 µmol Pi/min/mg and 9.671 µmol Pi/min/mg and 8.89 µmol Pi/min/mg. For the same compound, the PGP activity ([7]; 1 µM CP3, PG 300 µM) was 14.7802 µmol Pi/min/mg and 14.2395 µmol Pi/min/mg and 12.9778 µmol Pi/min/mg, the PGP activity ([7]; 1 µM CP3, PG 400 µM) was 17.1234 µmol Pi/min/mg and 17.6642 µmol Pi/min/mg and 16.5827 µmol Pi/min/mg and the PGP activity ([7]; 1 µM CP3, PG 500 µM) was 20.9086 µmol Pi/min/mg and 20.1877 µmol Pi/min/mg and 22.1704 µmol Pi/min/mg. The PGP activity ([7]; 1 µM CP3, PG 600 µM) was 22.1704 µmol Pi/min/mg and 21.0889 µmol Pi/min/mg and 23.7926 µmol Pi/min/mg, the PGP activity ([7]; 1 µM CP3, PG 700 µM) was 23.4321 µmol Pi/min/mg and 22.7111 µmol Pi/min/mg and 25.4148 µmol Pi/min/mg and the PGP activity ([7]; 1 µM CP3, PG 800 µM) was 25.7753 µmol Pi/min/mg and 22.1704 µmol Pi/min/mg and 24.3333 µmol Pi/min/mg. For the same compound, the PGP activity ([7]; 2 µM CP3, PG 100 µM) was 4.445 µmol Pi/min/mg and 3.364 µmol Pi/min/mg and 4.265 µmol Pi/min/mg, the PGP activity ([7]; 2 µM CP3, PG 200 µM) was 8.469 µmol Pi/min/mg and 7.448 µmol Pi/min/mg and the PGP activity ([7]; 2 µM CP3, PG 300 µM) was 12.437 µmol Pi/min/mg and 10.4543 µmol Pi/min/mg and 11.8963 µmol Pi/min/mg. The PGP activity ([7]; 2 µM CP3, PG 400 µM) was 15.6815 µmol Pi/min/mg and 12.7975 µmol Pi/min/mg and 14.7802 µmol Pi/min/mg, the PGP activity ([7]; 2 µM CP3, PG 500 µM) was 18.7457 µmol Pi/min/mg and 18.5654 µmol Pi/min/mg and 18.3852 µmol Pi/min/mg and the PGP activity ([7]; 2 µM CP3, PG 600 µM) was 19.6469 µmol Pi/min/mg and 20.7284 µmol Pi/min/mg. For the same compound, the PGP activity ([7]; 2 µM CP3, PG 700 µM) was 20.9086 µmol Pi/min/mg and 21.8099 µmol Pi/min/mg and 21.0889 µmol Pi/min/mg, the PGP activity ([7]; 2 µM CP3, PG 800 µM) was 21.4494 µmol Pi/min/mg and 22.3506 µmol Pi/min/mg and 22.7111 µmol Pi/min/mg and the PGP activity ([7]; 4 µM CP3, PG 100 µM) was 3.4839 µmol Pi/min/mg and 2.463 µmol Pi/min/mg and 3.424 µmol Pi/min/mg. For the same compound, the PGP activity ([7]; 4 µM CP3, PG 200 µM) was 6.547 µmol Pi/min/mg and 5.706 µmol Pi/min/mg and 6.728 µmol Pi/min/mg, the PGP activity ([7]; 4 µM CP3, PG 300 µM) was 9.553 µmol Pi/min/mg and 7.39 µmol Pi/min/mg and 12.7975 µmol Pi/min/mg and the PGP activity ([7]; 4 µM CP3, PG 400 µM) was 12.437 µmol Pi/min/mg and 10.4543 µmol Pi/min/mg and 15.321 µmol Pi/min/mg. The PGP activity ([7]; 4 µM CP3, PG 500 µM) was 15.6815 µmol Pi/min/mg and 15.5012 µmol Pi/min/mg and 17.484 µmol Pi/min/mg, the PGP activity ([7]; 4 µM CP3, PG 600 µM) was 16.763 µmol Pi/min/mg and 19.1062 µmol Pi/min/mg and the PGP activity ([7]; 4 µM CP3, PG 700 µM) was 16.763 µmol Pi/min/mg and 18.0247 µmol Pi/min/mg and 21.8099 µmol Pi/min/mg. The PGP activity ([7]; 4 µM CP3, PG 800 µM) was 17.3037 µmol Pi/min/mg and 18.2049 µmol Pi/min/mg and 22.5309 µmol Pi/min/mg, the vmax ([7]; CP 1.0 µM) was 50.8 ± 4.1 µmol/min/mg and the vmax ([7]; CP 2.0 µM) was 54.7 ± 4.9 µmol/min/mg. For the same compound, the vmax ([7]; CP 4.0 µM) was 54.3 ± 11.9 µmol/min/mg, the “effect on vmax (reduction)” value [7, 8] was “without affecting vmax” and the “increase of KM” value [7, 8] was ~ 3 fold.

From publication PMC9652372, “Glycolytic flux control by drugging phosphoglycolate phosphatase” (Nature Communications, 2022)
